Data reported in ChEMBL document CHEMBL1208766, “Synthesis of potent chemical inhibitors of dynamin GTPase” (Bioorg Med Chem Lett, 2010).
Each block holds one compound with its values, some of them ahead of it. Active and inactive are the calls of the source. The rule behind the calls is not given here.

Assays:
Dynamin-1 (Homo sapiens) = biological target: T1, Dynamin-1 (Homo sapiens) (UniProt Q05193); experiment: (§1) Inhibition of GTPase activity of Dynamin 1; parameters: concentration or dose not given beside the values; settings: concentration not given here
T1 sequence (whole entry): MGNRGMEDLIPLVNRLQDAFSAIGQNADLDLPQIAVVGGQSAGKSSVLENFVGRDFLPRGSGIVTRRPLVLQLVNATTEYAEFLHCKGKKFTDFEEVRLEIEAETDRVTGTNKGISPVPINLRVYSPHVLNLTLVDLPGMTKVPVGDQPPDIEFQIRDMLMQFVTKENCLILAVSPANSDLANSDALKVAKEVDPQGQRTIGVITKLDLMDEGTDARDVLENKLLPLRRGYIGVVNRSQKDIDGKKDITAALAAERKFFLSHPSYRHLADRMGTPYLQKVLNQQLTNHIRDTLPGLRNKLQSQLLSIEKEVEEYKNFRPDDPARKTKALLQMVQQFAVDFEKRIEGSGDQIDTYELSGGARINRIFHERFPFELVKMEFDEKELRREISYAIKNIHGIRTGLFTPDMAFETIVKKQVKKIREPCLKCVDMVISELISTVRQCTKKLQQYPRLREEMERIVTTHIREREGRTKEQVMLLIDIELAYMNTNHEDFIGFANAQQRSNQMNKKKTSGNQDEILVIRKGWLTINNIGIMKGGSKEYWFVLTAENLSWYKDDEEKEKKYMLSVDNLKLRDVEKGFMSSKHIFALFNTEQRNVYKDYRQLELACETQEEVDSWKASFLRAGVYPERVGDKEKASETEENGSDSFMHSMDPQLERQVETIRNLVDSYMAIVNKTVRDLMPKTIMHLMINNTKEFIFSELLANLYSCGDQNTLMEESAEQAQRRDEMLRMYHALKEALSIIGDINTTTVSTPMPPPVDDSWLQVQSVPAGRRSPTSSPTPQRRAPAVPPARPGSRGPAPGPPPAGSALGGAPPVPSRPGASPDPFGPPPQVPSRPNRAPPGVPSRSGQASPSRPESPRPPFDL

COS-7 [1] = experiment: Inhibition of transferrin uptake in african green monkey COS7 cells after 30 mins by microscopic TexasRed imaging; assay type: functional, cell-based; settings: Chlorocebus aethiops
Dynamin-1 = biological target: T2, Dynamin-1 (Homo sapiens, UniProt Q05193); experiment: as §1
T2 sequence (Q05193 whole entry): T1 sequence (whole entry)

COS-7 [2] = experiment: Inhibition of transferrin uptake in african green monkey COS7 cells by microscopic TexasRed imaging; assay type: functional, cell-based; settings: Chlorocebus aethiops
Homo sapiens = species: Homo sapiens; experiment: Inhibition of GTPase activity of human mitochondrial Drp1 expressed in Escherichia coli BL-21
COS-7 [3] = experiment: Inhibition of dynamin 1 mediated membrane fission in african green monkey Cos7 cells transfected with mRFP-LCa at 10 uM by total internal reflection fluorescence microscopy; assay type: cell-based; settings: Chlorocebus aethiops
[4] = Cytotoxicity against african green monkey COS7 cells after 12 hrs; assay type: cell-based; settings: chlorocebus aethiops, cos-7, 12 h
[5] = test system: Cell division control protein 42 homolog; experiment: Inhibition of GTPase activity of Cdc42

Structure (SMILES): NCCc1ccc(OC(=O)c2ccc3ccccc3c2)cc1
inhibition (Dynamin-1 (Homo sapiens)): 0%

Structure (SMILES): O=C(NCCc1ccc(O)cc1)c1ccc2ccccc2c1
inhibition (Dynamin-1 (Homo sapiens)): 0%

Structure (SMILES): O=C(OP(=O)(N1CCOC1=O)N1CCOC1=O)c1ccc2ccccc2c1
inhibition (Dynamin-1 (Homo sapiens)): 0%
inhibition (COS-7 [2]): Active

Structure (SMILES): O=C(N/N=C/c1ccc(Cl)c(Cl)c1)c1ccc2ccccc2c1
inhibition (Dynamin-1 (Homo sapiens)): 0%

Structure (SMILES): Cc1ccc(/C=N/NC(=O)c2ccc3ccccc3c2)cc1C
inhibition (Dynamin-1 (Homo sapiens)): 0%

Continued, in another order:

inhibition (Dynamin-1 (Homo sapiens)): 73.2%
IC50 (Dynamin-1): 5.1 µM
inhibition (Homo sapiens): Active
inhibition [5]: inactive
Structure (SMILES): O=C(N/N=C/c1ccc(O)c(O)c1)c1ccc2ccccc2c1
inhibition (COS-7 [1]): inactive
IC50 (COS-7 [2]): 4 µM
inhibition (COS-7 [3]): Active
Activity [4]: Non-toxic

inhibition (Dynamin-1 (Homo sapiens)): 0%
Structure (SMILES): O=C(N/N=C/c1ccc(Cl)c(Cl)c1)c1cc2ccccc2cc1O

inhibition (Dynamin-1 (Homo sapiens)): 0%
Structure (SMILES): O=C(N/N=C/c1cc(O)ccc1[N+](=O)[O-])c1cc2ccccc2cc1O

inhibition (Dynamin-1 (Homo sapiens)): 69.8%
IC50 (Dynamin-1): 10.8 µM
inhibition (Homo sapiens): Active
Structure (SMILES): O=C(N/N=C/c1ccc(O)c(O)c1)c1cc2ccccc2cc1O [DYNASORE]
IC50 (COS-7 [2]): 15 µM
inhibition (COS-7 [3]): inactive

inhibition (Dynamin-1 (Homo sapiens)): 74.7%
IC50 (Dynamin-1): 3.6 µM
inhibition (Homo sapiens): Active
inhibition [5]: inactive
Structure (SMILES): COc1ccc(/C=N/NC(=O)c2cc3ccccc3cc2O)cc1O
inhibition (COS-7 [1]): inactive
IC50 (COS-7 [2]): 2.6 µM
inhibition (COS-7 [3]): Active
Activity [4]: Non-toxic

inhibition (Dynamin-1 (Homo sapiens)): 0%
Structure (SMILES): Cc1ccc(/C=N/NC(=O)c2cc3ccccc3cc2O)cc1C
